Assay results from patent US20060293307A1, “Oxazolidinone derivatives as antimicrobials” (priority 2002, published 2006).
Values after ≈ are worked out from the molar mass of the structure shown. Like-named read-outs stand apart in the source and are kept apart here.

How the values were obtained:
M. avium ATCC 1723 = assay: MIC against MAC strains, agar dilution; type: cell-based, Mycobacterium avium; settings: Mycobacterium avium, ATCC1723; S. No. 03 Ma-3, M. avium ATCC 1723; Middle Brook 7H10 + OADC, 37° C., 14-21 days; read-out: MIC
E. faecalis 21777 = assay: MIC, agar incorporation method; type: cell-based; settings: Enterococcus faecalis; S. No. 18, E. faecalis 21777; read-out: MIC
[1] = tested on: S. epidermidis (MRSE)32965; assay: MIC, agar incorporation method; type: cell-based, Staphylococcus epidermidis; settings: Staphylococcus epidermidis, MRSE
M. tuberculosis PC [2] = assay: MIC against M. tuberculosis strains, agar dilution; type: cell-based, Mycobacterium tuberculosis; settings: Mycobacterium tuberculosis, S. No. 18 Mt-, Middle Brook 7H10 + OADC, 37° C., 14-21 days, read-out: MIC
M. tuberculosis 35801 = assay: MIC against M. tuberculosis strains, agar dilution; type: cell-based, Mycobacterium tuberculosis; settings: Mycobacterium tuberculosis, S. No. 02 Mt-, Middle Brook 7H10 + OADC, 37° C., 14-21 days, read-out: MIC
M avium ATCC 25291 = assay: MIC against MAC strains, agar dilution; type: cell-based, Mycobacterium avium; settings: Mycobacterium avium, ATCC25291; S. No. 02 Ma-2, M avium ATCC 25291; Middle Brook 7H10 + OADC, 37° C., 14-21 days; read-out: MIC
S. pneumoniae AB 10 = assay: MIC, agar incorporation method; type: cell-based, Streptococcus pneumoniae; settings: Streptococcus pneumoniae, AB10; S. No. 35, S. pneumoniae AB 10; read-out: MIC
S. aureus (MRSA) 15187 = assay: MIC, agar incorporation method; type: cell-based, Staphylococcus aureus; settings: Staphylococcus aureus; S. No. 4, S. aureus (MRSA) 15187; read-out: MIC
E. faecalis 29212 = assay: MIC, agar incorporation method; type: cell-based; settings: Enterococcus faecalis; S. No. 17, E. faecalis 29212; read-out: MIC
H. influenzae 451 = assay: MIC against Haemophilus strains; type: cell-based; settings: Haemophilus influenzae; s. No. 8, H. influenzae 451; read-out: MIC
S. pneumoniae AB 21 = assay: MIC, agar incorporation method; type: cell-based, Streptococcus pneumoniae; settings: Streptococcus pneumoniae, AB21
Moraxella M1 = assay: MIC, agar incorporation method; type: cell-based; settings: S. No. 58, Moraxella M1; read-out: MIC
S. pneumoniae AB 29 = assay: MIC, agar incorporation method; type: cell-based, Streptococcus pneumoniae; settings: Streptococcus pneumoniae, AB29
S. pneumoniae ATCC 6303 = assay: MIC, agar incorporation method; type: cell-based, Streptococcus pneumoniae; settings: Streptococcus pneumoniae, ATCC6303
S. pyogenes 25147 = assay: MIC, agar incorporation method; type: cell-based, Streptococcus pyogenes; settings: Streptococcus pyogenes, 25147
M. tuberculosis V-591 = assay: MIC against M. tuberculosis strains, agar dilution; type: cell-based, Mycobacterium tuberculosis; settings: Mycobacterium tuberculosis, V591, S. No. 13 Mt-, Middle Brook 7H10 + OADC, 37° C., 14-21 days, read-out: MIC
[3] = tested on: Serratia marcescens 12999; assay: MIC, agar incorporation method; type: cell-based; settings: S. No. 29, Serratia marcescens 12999; read-out: MIC
S. aureus (MRSA) ST450 = assay: MIC, agar incorporation method; type: cell-based, Staphylococcus aureus; settings: Staphylococcus aureus; S. No. 6, S. aureus (MRSA) ST450; read-out: MIC
S. aureus ATCC29213 = assay: MIC, agar incorporation method; type: cell-based, Staphylococcus aureus; settings: Staphylococcus aureus; S. No. 2, S. aureus ATCC29213; read-out: MIC
S. pneumoniae AB 31 = assay: MIC, agar incorporation method; type: cell-based, Streptococcus pneumoniae; settings: Streptococcus pneumoniae, AB31
[4] = tested on: S. epidermidis (MRSE) 23760; assay: MIC, agar incorporation method; type: cell-based, Staphylococcus epidermidis; settings: Staphylococcus epidermidis, MRSE
S. pneumoniae AB-2 = assay: MIC, agar incorporation method; type: cell-based, Streptococcus pneumoniae; settings: Streptococcus pneumoniae, AB2
[5] = tested on: S. epidermidis ATCC 12228; assay: MIC, agar incorporation method; type: cell-based, Staphylococcus epidermidis; settings: Staphylococcus epidermidis, ATCC12228
S. aureus SG 511 = assay: MIC, agar incorporation method; type: cell-based, Staphylococcus aureus; settings: Staphylococcus aureus, SG511
Moraxella cata. M2 = assay: MIC, agar incorporation method; type: cell-based; settings: S. No. 59, Moraxella cata. M2; read-out: MIC
M. tuberculosis PC [6] = assay: MIC against M. tuberculosis strains, agar dilution; type: cell-based, Mycobacterium tuberculosis; settings: Mycobacterium tuberculosis, S. No. 16 Mt-, Middle Brook 7H10 + OADC, 37° C., 14-21 days, read-out: MIC
S. pneumoniae CS 1687 = assay: MIC, agar incorporation method; type: cell-based, Streptococcus pneumoniae; settings: Streptococcus pneumoniae, CS1687
S. aureus (Smith 49951) = assay: MIC, agar incorporation method; type: cell-based, Staphylococcus aureus; settings: Staphylococcus aureus; S. No. 9, S. aureus (Smith 49951); read-out: MIC
S. pyogenes 19615 = assay: MIC, agar incorporation method; type: cell-based, Streptococcus pyogenes; settings: Streptococcus pyogenes, 19615
S. pneumoniae AB 17 = assay: MIC, agar incorporation method; type: cell-based, Streptococcus pneumoniae; settings: Streptococcus pneumoniae, AB17; S. No. 40, S. pneumoniae AB 17; read-out: MIC
S. pneumoniae AB 25 = assay: MIC, agar incorporation method; type: cell-based, Streptococcus pneumoniae; settings: Streptococcus pneumoniae, AB25

## CC(=O)NC[C@H]1CN(c2ccc(N3CCN(c4ccc([N+](=O)[O-])s4)CC3)c(F)c2)C(=O)O1 [Compound No. 1, (S)—N-[[3-[3-Fluoro-4-[4-(5-nitro-2-thienyl)-1-piperazinyl]phenyl]-2-oxo-5-oxazolidinyl]methyl]acetamide]
M. avium ATCC 1723
  MIC: 0.25 µg/mL
E. faecalis 21777
  MIC: 0.25 µg/mL (≈ 0.539 µM)
[1]
  MIC: 0.125 µg/mL (≈ 0.27 µM)
M. tuberculosis PC [2]
  MIC: 0.25 µg/mL
M. tuberculosis 35801
  MIC: ≤ 0.125 µg/mL
M avium ATCC 25291
  MIC: 0.25 µg/mL
S. pneumoniae AB 10
  MIC: 0.06 µg/mL (≈ 0.129 µM)
S. aureus (MRSA) 15187
  MIC: 0.25 µg/mL (≈ 0.539 µM)
E. faecalis 29212
  MIC: 0.25 µg/mL (≈ 0.539 µM)
H. influenzae 451
  MIC: 16 µg/mL (≈ 34.5 µM)
S. pneumoniae AB 21
  MIC: 0.125 µg/mL (≈ 0.27 µM)
Moraxella M1
  MIC: 1 µg/mL (≈ 2.16 µM)
S. pneumoniae AB 29
  MIC: 0.125 µg/mL (≈ 0.27 µM)
S. pneumoniae ATCC 6303
  MIC: 0.125 µg/mL (≈ 0.27 µM)
S. pyogenes 25147
  MIC: 0.125 µg/mL (≈ 0.27 µM)
M. tuberculosis V-591
  MIC: 0.5 µg/mL
[3]
  MIC: > 16 µg/mL
S. aureus (MRSA) ST450
  MIC: 0.25 µg/mL (≈ 0.539 µM)
S. aureus ATCC29213
  MIC: 0.25 µg/mL (≈ 0.539 µM)
S. pneumoniae AB 31
  MIC: 0.125 µg/mL (≈ 0.27 µM)
[4]
  MIC: 0.125 µg/mL (≈ 0.27 µM)
S. pneumoniae AB-2
  MIC: 0.125 µg/mL (≈ 0.27 µM)
[5]
  MIC: 0.125 µg/mL (≈ 0.27 µM)
S. aureus SG 511
  MIC: 0.125 µg/mL (≈ 0.27 µM)
Moraxella cata. M2
  MIC: 0.25 µg/mL (≈ 0.539 µM)
M. tuberculosis PC [6]
  MIC: 0.25 µg/mL
S. pneumoniae CS 1687
  MIC: 0.125 µg/mL (≈ 0.27 µM)
S. aureus (Smith 49951)
  MIC: 0.25 µg/mL (≈ 0.539 µM)
S. pyogenes 19615
  MIC: 0.125 µg/mL (≈ 0.27 µM)
S. pneumoniae AB 17
  MIC: 0.06 µg/mL (≈ 0.129 µM)
S. pneumoniae AB 25
  MIC: 0.125 µg/mL (≈ 0.27 µM)
